Source: patent publication US11168073B2, “3,3-difluoroallylamines or salts thereof and pharmaceutical compositions comprising the same” (YUHAN CORPORATION, priority 2018, dated 2021)
Where a name gives a salt, the structure may show the parent alone. Read-outs that look alike come from different tables or passages of the source.

Assays:
Format in all cases: biochemical
[1] = molecular target: T1, recombinant human MAO-B (monoamine oxidase-B) (Homo sapiens, UniProt P27338); assay: Activity evaluation on recombinant human MAO-B (Amplex Red/HRP-coupled assay, 1 mM benzylamine substrate); details: read-out: Inhibitory Activity (IC50, nM) MAO-B
T1 construct: purchased Sigma-Aldrich
T1 sequence (P27338 1-520): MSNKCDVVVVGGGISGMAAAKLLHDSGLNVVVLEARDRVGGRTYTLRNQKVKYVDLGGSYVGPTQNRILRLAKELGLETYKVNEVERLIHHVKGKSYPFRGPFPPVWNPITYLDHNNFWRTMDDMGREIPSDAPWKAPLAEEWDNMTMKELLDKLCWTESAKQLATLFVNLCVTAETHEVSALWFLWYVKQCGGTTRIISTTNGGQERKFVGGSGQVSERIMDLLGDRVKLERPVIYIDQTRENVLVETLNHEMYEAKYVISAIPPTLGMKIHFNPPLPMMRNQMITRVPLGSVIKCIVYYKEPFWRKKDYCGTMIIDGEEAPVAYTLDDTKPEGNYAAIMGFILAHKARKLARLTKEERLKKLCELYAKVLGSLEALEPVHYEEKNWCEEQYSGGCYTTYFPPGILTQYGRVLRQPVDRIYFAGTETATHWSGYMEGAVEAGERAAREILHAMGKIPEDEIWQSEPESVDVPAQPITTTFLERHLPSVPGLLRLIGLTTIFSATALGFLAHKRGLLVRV
In short: (§1)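 Compounds preincubated 30 min at 37 °C with enzyme in 50 mM sodium phosphate pH 7.4 (final DMSO <1%, 8-point 1:3 dilutions); reaction started with 200 uM Amplex Red, 1 U/mL HRP and substrate (MAO-A 0.5 mM tyramine, MAO-B 1 mM benzylamine, DAO 1 mM putrescine). Resorufin fluorescence (ex 544/em 590 nm) followed over 1-2 h; IC50 from four-parameter logistic fit.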

recombinant human VAP-1 = molecular target: T2, recombinant human VAP-1 (Homo sapiens, UniProt Q16853); assay: Activity evaluation on recombinant human VAP-1 (Amplex Red/HRP-coupled hydrogen peroxide assay, benzylamine substrate); details: read-out: Inhibitory Activity (IC50, nM) human VAP-1
T2 construct: purchased R&D systems
T2 sequence (Q16853 1-763): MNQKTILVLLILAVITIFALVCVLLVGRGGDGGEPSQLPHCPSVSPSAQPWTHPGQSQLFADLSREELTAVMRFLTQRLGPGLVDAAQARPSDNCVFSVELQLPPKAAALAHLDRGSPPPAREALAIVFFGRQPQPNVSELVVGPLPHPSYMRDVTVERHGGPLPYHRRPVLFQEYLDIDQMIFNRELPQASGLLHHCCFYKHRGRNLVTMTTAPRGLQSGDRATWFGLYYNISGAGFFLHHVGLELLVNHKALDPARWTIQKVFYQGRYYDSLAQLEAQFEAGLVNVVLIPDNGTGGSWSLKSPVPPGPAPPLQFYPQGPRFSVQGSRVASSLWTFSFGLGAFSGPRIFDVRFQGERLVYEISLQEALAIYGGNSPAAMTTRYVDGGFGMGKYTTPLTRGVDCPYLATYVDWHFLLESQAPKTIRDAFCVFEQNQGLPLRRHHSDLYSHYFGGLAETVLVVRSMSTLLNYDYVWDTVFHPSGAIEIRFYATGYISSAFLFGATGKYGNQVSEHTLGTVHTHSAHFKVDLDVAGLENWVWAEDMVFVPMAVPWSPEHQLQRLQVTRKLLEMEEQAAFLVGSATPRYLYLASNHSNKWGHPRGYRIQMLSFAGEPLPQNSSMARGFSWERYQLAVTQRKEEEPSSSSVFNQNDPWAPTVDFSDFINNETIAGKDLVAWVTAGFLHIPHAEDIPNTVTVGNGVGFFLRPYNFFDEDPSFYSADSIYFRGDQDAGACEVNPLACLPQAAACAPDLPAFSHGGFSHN
In short: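 Recombinant human VAP-1 in 50 mM sodium phosphate pH 7.4 preincubated 30 min at 37 °C with compound (8-point 1:3 series, <1% DMSO), then 1 mM benzylamine, 200 uM Amplex Red, 1 U/mL HRP added. H2O2-derived resorufin fluorescence (ex 544/em 590) followed 1–2 h; IC50 from four-parameter fit of rate inhibition.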

[2] = molecular target: T3, recombinant human DAO (diamine oxidase) (Homo sapiens, UniProt P19801); assay: Activity evaluation on recombinant human DAO (Amplex Red/HRP-coupled assay, 1 mM putrescine substrate); details: read-out: Inhibitory Activity (IC50, nM) DAO
T3 construct: purchased R&D systems
T3 sequence (P19801 20-751): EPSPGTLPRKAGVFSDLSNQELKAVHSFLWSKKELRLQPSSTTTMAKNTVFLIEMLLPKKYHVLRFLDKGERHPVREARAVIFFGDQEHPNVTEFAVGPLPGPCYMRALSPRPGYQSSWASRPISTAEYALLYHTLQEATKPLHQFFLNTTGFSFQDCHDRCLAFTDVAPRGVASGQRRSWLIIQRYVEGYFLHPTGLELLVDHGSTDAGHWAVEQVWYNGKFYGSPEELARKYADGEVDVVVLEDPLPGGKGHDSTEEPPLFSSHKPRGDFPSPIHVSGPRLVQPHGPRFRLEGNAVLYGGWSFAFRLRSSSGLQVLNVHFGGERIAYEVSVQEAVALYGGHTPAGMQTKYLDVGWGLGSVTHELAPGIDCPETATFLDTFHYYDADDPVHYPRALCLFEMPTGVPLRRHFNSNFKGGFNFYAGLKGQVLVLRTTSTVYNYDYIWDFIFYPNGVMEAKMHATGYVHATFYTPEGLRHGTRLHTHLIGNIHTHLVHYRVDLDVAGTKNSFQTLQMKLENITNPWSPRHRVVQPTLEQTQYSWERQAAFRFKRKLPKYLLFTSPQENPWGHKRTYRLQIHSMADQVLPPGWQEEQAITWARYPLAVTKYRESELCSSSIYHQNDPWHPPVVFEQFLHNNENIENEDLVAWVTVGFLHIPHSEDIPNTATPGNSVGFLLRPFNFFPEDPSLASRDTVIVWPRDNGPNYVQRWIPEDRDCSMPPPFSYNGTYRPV
In short: as §1

[3] = molecular target: T4, recombinant human MAO-A (monoamine oxidase-A) (Homo sapiens, UniProt P21397); assay: Activity evaluation on recombinant human MAO-A (Amplex Red/HRP-coupled assay, 0.5 mM tyramine substrate); details: read-out: Inhibitory Activity (IC50, nM) MAO-A
T4 construct: purchased Sigma-Aldrich
T4 sequence (P21397 1-527): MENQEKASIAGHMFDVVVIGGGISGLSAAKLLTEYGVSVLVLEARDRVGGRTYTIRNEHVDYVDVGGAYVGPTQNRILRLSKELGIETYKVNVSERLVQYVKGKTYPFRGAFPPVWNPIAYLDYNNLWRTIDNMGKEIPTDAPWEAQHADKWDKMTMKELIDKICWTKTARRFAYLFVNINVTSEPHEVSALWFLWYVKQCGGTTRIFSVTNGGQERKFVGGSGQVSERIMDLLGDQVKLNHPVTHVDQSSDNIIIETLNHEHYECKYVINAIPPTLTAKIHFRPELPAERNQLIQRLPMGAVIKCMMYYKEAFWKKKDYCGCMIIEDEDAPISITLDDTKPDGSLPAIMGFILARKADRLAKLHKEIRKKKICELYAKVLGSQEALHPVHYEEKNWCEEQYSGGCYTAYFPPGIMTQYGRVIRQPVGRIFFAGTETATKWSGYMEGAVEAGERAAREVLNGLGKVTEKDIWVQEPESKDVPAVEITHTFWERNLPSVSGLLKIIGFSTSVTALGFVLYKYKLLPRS
In short: as §1

[4] = recombinant human VAP-1, 30 min preincubation at 37° C., 1 mM benzylamine

Cc1cc(Br)sc1Cn1cnn(CC(CN)=C(F)F)c1=O [Example 99, 2-[2-(aminomethyl)-3,3-difluoro-allyl]-4-[(5-bromo-3-methyl-2-thienyl)methyl]-1,2,4-triazol-3-one Trifluoroacetate] was tested, and the IC50 ([1]; 1 mM benzylamine) was 21000 nM, the IC50 (recombinant human VAP-1; [4]) was 9.3 nM and the IC50 ([2]; 1 mM putrescine) was over 100000 nM. It also gave an IC50 ([3]; 0.5 mM tyramine) of over 100000 nM.
Cc1cc(-c2ccc(Cn3cnn(CC(CN)=C(F)F)c3=O)s2)cc2ccc(=O)[nH]c12 [Example 135, 6-[5-[[1-[2-(aminomethyl)-3,3-difluoro-allyl]-5-oxo-1,2,4-triazol-4-yl]methyl]-2-thienyl]-8-methyl-1H-quinolin-2-one Trifluoroacetate] gave an IC50 ([1]; 1 mM benzylamine) of over 100000 nM, an IC50 (recombinant human VAP-1; [4]) of 0.4 nM and an IC50 ([2]; 1 mM putrescine) of 79000 nM. The IC50 ([3]; 0.5 mM tyramine) was over 100000 nM.
With CS(=O)(=O)c1ccc(-c2ccc(CCn3cnn(CC(CN)=C(F)F)c3=O)s2)cc1 [Example 173, 2-[2-(aminomethyl)-3,3-difluoro-allyl]-4-[2-[5-(4-methylsulfonylphenyl)-2-thienyl]ethyl]-1,2,4-triazol-3-one trifluoroacetate] the IC50 ([1]; 1 mM benzylamine) was 69000 nM, the IC50 (recombinant human VAP-1; [4]) was 0.3 nM and the IC50 ([2]; 1 mM putrescine) was 260 nM. The IC50 ([3]; 0.5 mM tyramine) was over 100000 nM.
Compound CCn1cc(-c2csc(Cn3cnn(CC(CN)=C(F)F)c3=O)c2)cn1 [Example 153, 2-[2-(aminomethyl)-3,3-difluoro-allyl]-4-[[4-(1-ethylpyrazol-4-yl)-2-thienyl]methyl]-1,2,4-triazol-3-one Trifluoroacetate] has an IC50 ([1]; 1 mM benzylamine) of 29000 nM, an IC50 (recombinant human VAP-1; [4]) of 1.3 nM and an IC50 ([2]; 1 mM putrescine) of 36000 nM. It also gave an IC50 ([3]; 0.5 mM tyramine) of over 100000 nM.
With CS(=O)(=O)c1ccc(-c2csc(Cn3cnn(CC(CN)=C(F)F)c3=O)c2)cc1 [Example 146, 2-[2-(aminomethyl)-3,3-difluoro-allyl]-4-[[4-(4-methylsulfonylphenyl)-2-thienyl]methyl]-1,2,4-triazol-3-one Trifluoroacetate] the IC50 ([1]; 1 mM benzylamine) was 33000 nM, the IC50 (recombinant human VAP-1; [4]) was 1.1 nM and the IC50 ([2]; 1 mM putrescine) was 9200 nM. It also gave an IC50 ([3]; 0.5 mM tyramine) of over 100000 nM.
CCn1cc(-c2ccc(CCn3cnn(CC(CN)=C(F)F)c3=O)s2)cn1 [Example 180, 2-[2-(aminomethyl)-3,3-difluoro-allyl]-4-[2-[5-(1-ethylpyrazol-4-yl)-2-thienyl]ethyl]-1,2,4-triazol-3-one Trifluoroacetate] showed an IC50 ([1]; 1 mM benzylamine) of 61000 nM, an IC50 (recombinant human VAP-1; [4]) of 0.6 nM and an IC50 ([2]; 1 mM putrescine) of 1900 nM. The IC50 ([3]; 0.5 mM tyramine) was over 100000 nM.
Work on NCC(Cn1ncn(-c2cccc(-c3ccc(C(F)(F)F)nc3)n2)c1=O)=C(F)F [Example 48, 2-[2-(aminomethyl)-3,3-difluoro-allyl]-4-[6-[6-(trifluoromethyl)-3-pyridyl]-2-pyridyl]-1,2,4-triazol-3-one Trifluoroacetate] yielded an IC50 ([1]; 1 mM benzylamine) of 31000 nM, an IC50 (recombinant human VAP-1; [4]) of 1 nM and an IC50 ([2]; 1 mM putrescine) of 61 nM. It also gave an IC50 ([3]; 0.5 mM tyramine) of over 100000 nM.
CCn1cc(-c2cnc(-n3cnn(CC(CN)=C(F)F)c3=O)cn2)cn1 [Example 95, 2-[2-(aminomethyl)-3,3-difluoro-allyl]-4-[5-(1-ethylpyrazol-4-yl)pyrazin-2-yl]-1,2,4-triazol-3-one Trifluoroacetate] was tested, and the IC50 ([1]; 1 mM benzylamine) was 1300 nM, the IC50 (recombinant human VAP-1; [4]) was 0.6 nM and the IC50 ([2]; 1 mM putrescine) was 19 nM. The IC50 ([3]; 0.5 mM tyramine) was over 100000 nM.
Cc1cc(-c2cnc(-n3cnn(CC(CN)=C(F)F)c3=O)c(F)c2)cc2c1NC(=O)CC2 [Example 86, 6-[6-[1-[2-(aminomethyl)-3,3-difluoro-allyl]-5-oxo-1,2,4-triazol-4-yl]-5-fluoro-3-pyridyl]-8-methyl-3,4-dihydro-1H-quinolin-2-one Trifluoroacetate] gave an IC50 ([1]; 1 mM benzylamine) of 640 nM, an IC50 (recombinant human VAP-1; [4]) of 0.1 nM and an IC50 ([2]; 1 mM putrescine) of 33 nM. For the same compound, the IC50 ([3]; 0.5 mM tyramine) was over 100000 nM.
Work on NCC(Cn1ncn(Cc2ccc(-c3cc(F)c4c(c3)CC(=O)N4)s2)c1=O)=C(F)F [Example 130, 5-[5-[[1-[2-(aminomethyl)-3,3-difluoro-allyl]-5-oxo-1,2,4-triazol-4-yl]methyl]-2-thienyl]-7-fluoro-indolin-2-one Trifluoroacetate] yielded an IC50 ([1]; 1 mM benzylamine) of over 100000 nM, an IC50 (recombinant human VAP-1; [4]) of 0.7 nM and an IC50 ([2]; 1 mM putrescine) of over 100000 nM. The IC50 ([3]; 0.5 mM tyramine) was over 100000 nM.
Compound NCC(Cn1ncn(Cc2sc(-c3ccc(N4CCNCC4)cc3)cc2F)c1=O)=C(F)F [Example 298, 2-[2-(aminomethyl)-3,3-difluoro-allyl]-4-[[3-fluoro-5-(4-piperazin-1-ylphenyl)-2-thienyl]methyl]-1,2,4-triazol-3-one ditrifluoroacetate] has an IC50 ([1]; 1 mM benzylamine substrate) of over 100000 nM, an IC50 (recombinant human VAP-1; recombinant human VAP-1, benzylamine substrate) of 12 nM and an IC50 ([2]; 1 mM putrescine substrate) of 0.2 nM. For the same compound, the IC50 ([3]; 0.5 mM tyramine substrate) was over 100000 nM.
Work on CCOc1ncc(-c2ccc(Cn3cnn(CC(CN)=C(F)F)c3=O)s2)cn1 [Example 117, 2-[2-(aminomethyl)-3,3-difluoro-allyl]-4-[[5-(2-ethoxypyrimidin-5-yl)-2-thienyl]methyl]-1,2,4-triazol-3-one Trifluoroacetate] yielded an IC50 ([1]; 1 mM benzylamine) of over 100000 nM, an IC50 (recombinant human VAP-1; [4]) of 1.1 nM and an IC50 ([2]; 1 mM putrescine) of 7100 nM. For the same compound, the IC50 ([3]; 0.5 mM tyramine) was over 100000 nM.
Cc1cc(Br)ccc1-n1cnn(CC(CN)=C(F)F)c1=O [Example 6, 2-[2-(aminomethyl)-3,3-difluoro-allyl]-4-(4-bromo-2-methyl-phenyl)-1,2,4-triazol-3-one trifluoroacetate] gave an IC50 ([1]; 1 mM benzylamine) of over 100000 nM, an IC50 (recombinant human VAP-1; [4]) of 9.4 nM and an IC50 ([2]; 1 mM putrescine) of over 100000 nM. It also gave an IC50 ([3]; 0.5 mM tyramine) of over 100000 nM.
